Patent publication US20240140944A1, “NOVEL NAPHTHYRIDINONE DERIVATIVE HAVING INHIBITORY ACTIVITY AGAINST ECTONUCLEOTIDE PYROPHOSPHATASE-PHOSPHODIESTERASE AND USE THEREOF” (TXINNO BIOSCIENCE INC., priority 2020, published 2024)
Counter-ions that a name gives are not always drawn.

How the values were obtained:
[1] = biological target: T1, human recombinant ENPP1 enzymes (Homo sapiens, UniProt P22413); assay: ENPP1 Enzyme Assay with cGAMP Substrate (AMP-Glo); type: biochemical; conditions: human recombinant ENPP1 3 ng/reaction, cGAMP 5 μM, 37° C. 90 minutes, average of two or more tests; read-out: Enzymatic activity IC50
T1 construct: purchased R & D systems
T1 sequence (P22413 1-925): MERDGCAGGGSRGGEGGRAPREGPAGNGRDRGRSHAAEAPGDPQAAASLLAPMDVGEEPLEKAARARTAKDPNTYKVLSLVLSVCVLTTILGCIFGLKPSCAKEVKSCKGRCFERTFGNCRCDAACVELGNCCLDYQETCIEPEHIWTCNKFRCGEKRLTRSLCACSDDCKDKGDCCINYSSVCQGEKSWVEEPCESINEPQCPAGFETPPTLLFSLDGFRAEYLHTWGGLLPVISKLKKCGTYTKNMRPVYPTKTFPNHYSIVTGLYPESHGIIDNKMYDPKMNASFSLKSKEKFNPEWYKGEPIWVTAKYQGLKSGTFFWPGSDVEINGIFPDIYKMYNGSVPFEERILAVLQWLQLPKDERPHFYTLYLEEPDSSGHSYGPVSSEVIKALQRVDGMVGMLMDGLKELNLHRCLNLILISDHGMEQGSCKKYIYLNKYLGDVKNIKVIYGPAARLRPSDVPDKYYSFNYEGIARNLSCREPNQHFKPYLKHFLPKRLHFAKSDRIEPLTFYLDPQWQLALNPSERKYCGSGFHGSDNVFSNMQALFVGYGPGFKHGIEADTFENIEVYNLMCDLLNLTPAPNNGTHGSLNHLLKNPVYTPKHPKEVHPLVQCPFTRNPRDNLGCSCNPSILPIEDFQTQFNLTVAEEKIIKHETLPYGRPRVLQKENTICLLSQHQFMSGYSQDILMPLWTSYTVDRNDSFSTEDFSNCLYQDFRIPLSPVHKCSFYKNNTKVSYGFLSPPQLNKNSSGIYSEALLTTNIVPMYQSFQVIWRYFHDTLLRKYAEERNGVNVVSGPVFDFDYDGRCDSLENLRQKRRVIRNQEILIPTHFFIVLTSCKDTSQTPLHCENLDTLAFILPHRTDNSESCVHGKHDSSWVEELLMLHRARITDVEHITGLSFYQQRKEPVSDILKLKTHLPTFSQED
In short: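 Human recombinant ENPP1 (3 ng/reaction) preincubated 5–10 min at RT with inhibitor, then reacted with 5 µM cGAMP for 90 min at 37 °C in 50 mM Tris pH 8.5, 250 mM NaCl, 0.5 mM CaCl2, 1 µM ZnCl2, 1% DMSO. AMP produced read by AMP-Glo luminescence; IC50 from 3-parameter fit, averaged over ≥2 runs.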

[2] = test system: interferon regulatory factor 3 (IRF3) in HCT116-Dual cells; assay: HCT116-Dual Cell Luciferase Assay (ISG54 promoter, IRF3 activity); type: cell-based; conditions: ENPP1 inhibitor usually 10 μM plus cGAMP 10 μM, 48 hours, Lucia luciferase
Text: HCT116-Dual™ cells express genes encoding luciferase secreted under the control of the interferon-stimulated gene 54 (ISG54) promoter along with five interferon-stimulated response elements. The HCT116-Dual™ cell line was used to measure and monitor the activity of interferon regulatory factor 3 (IRF3), which induces production of type I interferon and relates to downstream signaling, and Lucia secreted in the culture medium was used to generate luminescence in a luciferase reaction.
HCT116-Dual™ cells were cultured at 2×10^4 cells/well (93.4 μL) in a 96-well plate for one day in a DMEM medium containing 10% FBS and 25 mM HEPES (pH 7.2-7.5). The cells were treated with 3.3 μL of ENPP1 inhibitor (usually 10 μM) and then 3.3 μL of cGAMP (10 μM) to set the final volume to 100 μL (The final fraction of DMSO was 0.1%). The cells treated with ENPP1 inhibitor and cGAMP were cultured at 37° C. for 48 hours and 50 μL of Quanti-Luc reaction solution was added to 20 μL of cell culture medium to measure luciferase activity. The increase in interferon regulatory factor 3 (IRF3) by the compound compared to cGAMP was determined as fold.

Row | IC50 [1] [nM] | Compound | Cellular activity: increase in IRF3 by the compound compared to cGAMP, as fold [2]
1 | < 1000 | NS(=O)(=O)NCc1ccc(-c2ccnc3[nH]c(=O)ccc23)c(F)c1F [Example 43, N-(2,3-difluoro-4-(7-oxo-7,8-dihydro-1,8-naphthyridin-4-yl)benzyl)sulfamide hydrochloride] | B (1< Fold <2)
2 | < 1000 | Cl.NS(=O)(=O)N(Cc1ccc(-c2ccnc3[nH]c(=O)ccc23)c(F)c1)C1CC1 [Example 58, N-cyclopropyl-N-(3-fluoro-4-(7-oxo-7,8-dihydro-1,8-naphthyridin-4-yl)benzyl)sulfamide hydrochloride] | B (1< Fold <2)
3 | < 1000 | CN(Cc1ccc(-c2ccnc3[nH]c(=O)ccc23)c(F)c1)S(N)(=O)=O.Cl [Example 55, N-(3-fluoro-4-(7-oxo-7,8-dihydro-1,8-naphthyridin-4-yl)benzyl)-N-methylsulfamide hydrochloride] | B (1< Fold <2)
